From patent US20230174988A1, “METHODS FOR INDUCING BILE ACID SULFOTRANSFERASE SULT2A FOR TREATING METABOLIC DISORDERS” (priority 2020, published 2023)
“Also recorded” adds a separate entry of the source. Like-named read-outs stand apart in the source and are kept apart here.

Assays:
[1] = target: T1, TGR5 (Homo sapiens, UniProt Q8TDU6); test: relative TGR5 expression (FIG. 40); type: cell-based
T1 sequence (Q8TDU6 1-330): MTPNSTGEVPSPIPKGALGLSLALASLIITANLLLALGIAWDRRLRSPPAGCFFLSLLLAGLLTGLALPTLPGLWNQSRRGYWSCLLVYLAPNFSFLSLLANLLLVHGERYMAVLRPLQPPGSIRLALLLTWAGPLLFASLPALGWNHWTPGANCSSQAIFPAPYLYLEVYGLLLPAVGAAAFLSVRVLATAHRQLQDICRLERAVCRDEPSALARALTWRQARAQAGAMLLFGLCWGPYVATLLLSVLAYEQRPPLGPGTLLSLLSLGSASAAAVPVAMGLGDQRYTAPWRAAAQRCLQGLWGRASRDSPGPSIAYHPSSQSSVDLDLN
From the text: FIG. 40B-D show the relative TGR5 expression of the various compounds.

[2] = system: SULT2A1; test: SULT2A1 expression in HepG2 cells (qRT-PCR); type: cell-based; conditions: normalized to human GAPDH
[3] = system: DIO mice; test: portal vein injection of LCA in DIO mice; type: in vivo, mouse; conditions: LCA 50 μM into portal vein
[4] = system: GF mice; test: GF mice administered 0.3% LCA (w/w) in chow for 1 week; type: in vivo, mouse; conditions: 0.3% LCA in chow
[5] = system: ASBT; test: ASBT expression in Caco-2 cells; type: cell-based, human; parameters: dose or concentration left out as unconfirmed; conditions: LCA
[6] = system: NCI-H716 cells; test: GLP-1 secretion in NCI-H716 cells in vitro; type: cell-based, human; conditions: for GLP-1 secretion in vitro by CA7S extracted from cecal contents of SG mice: purified CA7S 500 μM vs DMSO
From the text: TGR5 agonism also results in elevated intracellular calcium levels^19.

[7] = system: DIO mice; test: acute treatment of DIO mice via duodenal and rectal catheters: GLP-1 and blood glucose; type: in vivo, mouse; conditions: HFD-fed (DIO) mice, 1 mg CA7S vs PBS, within 15 min
[8] = system: NF-kB; test: NF-kB reporter assay in THP1-Blue cells; type: cell-based, human; conditions: LPS-induced inflammation
[9] = stability after incubation at 37° C. in buffer at physiological pHs (UPLC-MS); type: physicochemical
[10] = system: Caco-2 cells; test: cell viability of Caco-2 cells; type: cell-based, human; conditions: concentrations up to 3 mM
[11] = inflammation in vivo
[12] = system: NCI-H716 cells; test: intracellular calcium levels in NCI-H716 cells; type: cell-based, human; conditions: NCI-H716 (L-cells)
[13] = system: macrophages; test: IL-10 secretion from macrophages in vitro; type: cell-based
[14] = in vivo; conditions: mouse, 1 mg
[15] = system: macrophage; test: macrophage cell viability; type: cell-based
[16] = listed as Cholic acid 7-sulfate
[17] = listed as cholic acid 7-sulfate
[18] = HFD-fed mice, acute cholic acid 7-sulfate treatment

## COC(=O)CC[C@@H](C)[C@H]1CC[C@H]2[C@@H]3[C@H](OP(=O)(OCc4ccccc4)OCc4ccccc4)C[C@@H]4C[C@H](O[Si](C)(C)C(C)(C)C)CC[C@]4(C)[C@H]3CC[C@]12C [Compound 9-2]
[1]
  TGR5 expression: induces TGR5 expression

## C[C@H](CCC(=O)O)[C@H]1CC[C@H]2[C@@H]3[C@H](OP(=O)(O)O)C[C@@H]4C[C@H](O)CC[C@]4(C)[C@H]3C[C@H](O)[C@]12C [Compound 9, cholic acid-7-phosphate]
[1]
  TGR5 expression: induces TGR5 expression

## C[C@H](CCC(=O)NCCS(=O)(=O)O)[C@H]1CC[C@H]2[C@@H]3CC[C@@H]4C[C@H](O)CC[C@]4(C)[C@H]3C[C@H](O)[C@]12C [TCDCA, taurodeoxycholic acid]
[2]
  SULT2A1 expression: did not induce SULT2A1 expression at all concentrations tested

## C[C@H](CCC(=O)O)[C@H]1CC[C@H]2[C@@H]3CC[C@@H]4C[C@H](O)CC[C@]4(C)[C@H]3CC[C@]12C [LCA, 3α-hydroxy-5β-cholan-24-oic acid]
[3]
  CA7S levels in the gallbladder: increase in CA7S levels in the gallbladder
[3]; two hours after injection
  SULT2A1 expression level in mouse liver: significant increase
  VDR expression level in mouse liver: significant increase
[2]
  SULT2A1 expression: induced SULT2A1; also recorded: could induce SULT2A1 expression in a dose dependent manner
[4]
  Asbt expression in SI and DI: inhibited expression of Asbt in SI and DI
  VDR expression in liver: increased expression
  mSult2A1 expression in liver: increased expression
[4]; 1 week
  LCA levels in intestine after feeding: accumulation of LCA in the proximal small intestine (SI), distal ileum (DI), and cecum
[4]; gallbladder and distal ileum
  CA7S production and accumulation: induced CA7S production and accumulation in the gallbladder (GB) and the DI
[5]
  ASBT expression: inhibited expression of ASBT

## C[C@H](CCC(=O)O)[C@H]1CC[C@H]2[C@@H]3[C@H](O)C[C@@H]4C[C@H](O)CC[C@]4(C)[C@H]3CC[C@]12C [CDCA, chenodeoxycholic acid]
[2]
  SULT2A1 expression: did not induce SULT2A1 expression at all concentrations tested

## COC(=O)CC[C@@H](C)[C@H]1CC[C@H]2[C@@H]3[C@H](NS(=O)(=O)O)[C@@H](O[Si](C)(C)C(C)(C)C)[C@@H]4C[C@H](O[Si](C)(C)C(C)(C)C)CC[C@]4(C)[C@H]3CC[C@]12C [Compound 3-8]
[1]
  TGR5 expression: induces TGR5 expression

## C[C@H](CCC(=O)O)[C@H]1CC[C@H]2[C@@H]3[C@H](OS(=O)(=O)O)C[C@@H]4C[C@H](O)CC[C@]4(C)[C@H]3C[C@H](O)[C@]12C [CA7S, cholic acid 7-sulfate]
[6]
  GLP-1 secretion in vitro: induced GLP-1 secretion to a similar degree as TDCA in a dose-dependent manner
  GLP-1 secretion in vitro by CA7S extracted from cecal contents of SG mice: induced GLP-1 secretion in vitro
[6]; [16]
  GLP-1 secretion in vitro: induces GLP-1 secretion in vitro better than the known GLP-1 inducer TDCA
[6]; [17]
  GLP-1 secretion in vitro by CA7S extracted from cecal contents of SG mice: exhibit activity inducing GLP-1 secretion in vitro
[7]
  blood glucose levels: reduced blood glucose levels
  systemic GLP-1 levels: increased systemic GLP-1 levels
[7]; [17]
  systemic GLP-1 levels: induced GLP-1 levels
[8]
  NFkB activation: reduces NFkB activation
[9]
  stability at physiological pHs: stable at physiological pHs
[9]; [16]
  stability at physiological pHs: stable in a wide range of pHs
[10]
  toxicity / viability of intestinal Caco-2 cells: does not affect the viability
[10]; [16]
  toxicity / viability of intestinal Caco-2 cells: no toxicity
[18]
  Cholic acid 7-sulfate concentration (mean ± SEM), Cecum: 2577 ± 185.3 pmol/mg
  Cholic acid 7-sulfate concentration (mean ± SEM), Hepatic portal vein: 6.128 ± 2.111 pmol/mg
Administration of 1 mg, on average
  CA7S in cecal contents: 2500 pmol/mg wet mass
Ectopic introduction in mice, listed as cholic acid 7-sulfate
  leak into systemic circulation and portal vein (gut restriction): only minor amounts
[11]
  inflammation in vivo: improves inflammation in vivo
[12]
  intracellular calcium levels: dose-dependent increase in calcium levels
[12]; [16]
  intracellular calcium levels: increased calcium levels
[13]
  IL-10 secretion: induces secretion of the anti-inflammatory cytokine IL-10
[14]; Cholic acid 7-sulfate concentration (mean ± SEM), Blood, HFD-fed mice, acute cholic acid 7-sulfate treatment
  concentration at 15 min: 0.495 ± 0.167 µM
[14]; cholic acid 7-sulfate in the cecum, dosing with 1 mg
  concentration at 15 min: ~2500 µM
[15]
  macrophage cell viability: does not affect macrophage cell viability

## C[C@H](CCC(=O)O)[C@H]1CC[C@H]2[C@@H]3[C@H](O)C[C@@H]4C[C@H](O)CC[C@]4(C)[C@H]3C[C@H](O)[C@]12C [CA, cholic acid, reference compound]
[6]
  GLP-1 secretion in vitro: had no effect on GLP-1 secretion
[6]; listed as cholic acid
  GLP-1 secretion in vitro: had no effect
[2]
  SULT2A1 expression: did not induce SULT2A1 expression at all concentrations tested
